Counter-ions that a name gives are not always drawn. Like-named read-outs stand apart in the source and are kept apart here.
Experiments:
CDK2/Cyclin A = CDK2/Cyclin A (Homo sapiens, UniProt P24941); experiment: Inhibition of CDK2/Cyclin A Retinoblastoma Kinase Activity; assay type: biochemical; details: for Ki: apparent Ki, CDK2/proteolyzed cyclin A, Rb fragment substrate, 25 μM ATP; for CDK2 % Inhibition At 0.03 μM: Table 2
Summary of the method: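 CDK2 (10 or 19 nM), insect-cell expressed, gel-filtration purified with truncated cyclin A; Rb fragment substrate; 25 μM ATP; 10 mM HEPES pH 7.4, 10 mM MgCl2; 30° C, 60 or 75 min; EDTA stop; phosphocellulose/nitrocellulose capture, phosphorimager. % inhibition vs DMSO control, no-enzyme background subtracted.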

HCT-116 cell line = experiment: Inhibition of cell growth, tetrazolium salt (MTT) assay; assay type: cell-based; details: for IC50: Homo sapiens, HCT-116, 120 h, MTT, three to five days, read-out: HCT-116 IC50; for HCT-116 % Inhibition at 0.25 μM: 0.25 μM compound
Summary of the method: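 First, cells were seeded in McCoy's 5A medium and held 4 h. Next, inhibitor concentrations in 0.5% (v/v) DMSO were applied for three to five days at 37° C, 5% CO2. Finally, after 4 h with 0.2 mg/mL MTT and medium removal, solubilized formazan was measured at 540 nm.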

[1] = target: human CDK4 and genetically truncated (1-264) cyclin D3 (Homo sapiens, UniProt P11802); experiment: Inhibition of CDK4/Cyclin D Retinoblastoma Kinase Activity; assay type: biochemical; details: for Ki: apparent Ki, CDK4/truncated cyclin D3, Rb fragment substrate, 25 μM ATP
Summary of the method: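 The enzyme complex (5 nM), expressed in co-infected insect cells, was incubated with recombinant Rb fragment, 25 μM radiolabelled ATP and 2% DMSO at 30 °C. Reactions were stopped with EDTA after 20 minutes, or 60 minutes for tight-binding inhibitors. Apparent Ki values came from competitive inhibition fits.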

human CDK4 and genetically truncated (1-264) cyclin D3, sequence (P11802 whole entry, the tested form may be a part): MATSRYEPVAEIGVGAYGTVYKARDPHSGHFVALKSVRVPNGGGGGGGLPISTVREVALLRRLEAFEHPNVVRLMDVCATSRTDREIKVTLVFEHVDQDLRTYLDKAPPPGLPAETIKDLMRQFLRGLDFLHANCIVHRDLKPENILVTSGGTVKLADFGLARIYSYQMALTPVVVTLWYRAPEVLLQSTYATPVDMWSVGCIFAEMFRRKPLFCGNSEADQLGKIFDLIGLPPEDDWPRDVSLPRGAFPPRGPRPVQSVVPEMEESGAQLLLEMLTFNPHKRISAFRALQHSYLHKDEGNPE
human CDK4 and genetically truncated (1-264) cyclin D3, sequence (P30281 1-264 partner): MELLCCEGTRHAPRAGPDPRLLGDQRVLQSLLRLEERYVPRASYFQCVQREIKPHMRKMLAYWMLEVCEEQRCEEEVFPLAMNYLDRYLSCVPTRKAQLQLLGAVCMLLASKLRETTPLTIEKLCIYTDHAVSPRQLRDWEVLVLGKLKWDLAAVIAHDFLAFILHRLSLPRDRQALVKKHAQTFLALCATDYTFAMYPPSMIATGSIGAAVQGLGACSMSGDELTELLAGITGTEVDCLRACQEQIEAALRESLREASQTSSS

| Compound | Ki (CDK2/Cyclin A) [nM] | IC50 (HCT-116 cell line; first HCT-116 column (c4)) [nM] | IC50 (HCT-116 cell line; second HCT-116 column (c5)) [nM] | Ki [1] [nM] | other results |
| --- | --- | --- | --- | --- | --- |
| Nc1nc(NC2CCN(S(=O)(=O)c3ccc(N4CCC[C@H]4CO)nc3)CC2)sc1C(=O)c1c(F)cccc1F [Example G14, 1-{4-Amino-2-{1-[6-(2S-hydroxymethyl-pyrrolidin-1-yl)-pyridine-3-sulfonyl]-piperidin-4-ylamino}-thiazol-5-yl)-1-(2,6-difluoro-phenyl)-methanone Trifluoroacetic Acid Salt] | 0.5 | 140 | 3500 | 0.8 |  |
| Nc1nc(NC2CCN(C(=O)Nc3cccc(Br)c3)CC2)sc1C(=O)c1c(F)cccc1F [Example O12] |  |  |  |  | CDK2 % Inhibition At 0.03 μM (CDK2/Cyclin A; 0.03 μM compound): 31%; HCT-116 % Inhibition at 0.25 μM (HCT-116 cell line; HCT-116, Table 2): 25%; CDK4 % Inhibition at 0.03 μM ([1]; 0.03 μM compound, Table 2): 3% |
| Cc1cccc(CNCCS(=O)(=O)N2CCC(Nc3nc(N)c(C(=O)c4c(F)cccc4F)s3)CC2)c1 [Example K41, (4-Amino-2-{1-[2-(3-methyl-benzylamino)-ethanesulfonyl]-piperidin-4-ylamino}-thiazol-5-yl)-(2,6-difluoro-phenyl)-methanone] | 0.63 | 70 | 170 | 1.9 |  |
| CC1CCCC(NCCS(=O)(=O)N2CCC(Nc3nc(N)c(C(=O)c4c(F)cccc4F)s3)CC2)C1 (mixture of isomers) [Example K43, (4-Amino-2-{1-[2-(3(cis/trans)-methyl-cyclohexylamino)-ethanesulfonyl]-piperidin-4-ylamino}-thiazol-5-yl)-(2,6-difluoro-phenyl)-methanone] | 0.57 | 51 | 300 | 2.4 |  |
| CN(C)CCc1ncc(S(=O)(=O)N2CCC(Nc3nc(N)c(C(=O)c4c(F)cccc4F)s3)CC2)cn1 [Example N12, (4-Amino-2-{1-[2-(2-dimethylamino-ethyl)-pyrimidine-5-sulfonyl]-piperidine-4-ylamino}-thiazol-5-yl)-(2,6-difluoro-phenyl)-methanone Hydrochloride Salt.] | 1.7 | 67 | 130 | 0.62 |  |
| CCN1CCN(CCCS(=O)(=O)N2CCC(Nc3nc(N)c(C(=O)c4c(F)cccc4F)s3)CC2)CC1 [Example K15, 1-(4-Amino-2-{1-[3-(4-ethylpiperazin-1-yl)propane-1-sulfonyl]-piperidin-4-ylamino}-thiazol-5-yl)-1-(2,6-difluoro-phenyl)-methanone.] | 8.7 | 1300 | 5000 | 2.5 |  |
| Nc1nc(NC2CCN(S(=O)(=O)c3ccc(CBr)cc3)CC2)sc1C(=O)c1c(F)cccc1F [Example P68] |  |  |  |  | CDK2 % Inhibition at 0.03 μM (CDK2/Cyclin A; 0.03 μM compound, Table 3): 72%; HCT-116 % Inhibition at 0.1 μM (HCT-116 cell line; 0.1 μM compound, HCT-116, Table 3): 8%; HCT-116 % Inhibition at 0.25 μM (HCT-116 cell line; HCT-116, Table 3): 25%; CDK4 % Inhibition at 0.03 μM ([1]; 0.03 μM compound, Table 3): 70% |
| CN(C)CCCOc1ccc(S(=O)(=O)N2CCC(Nc3nc(N)c(C(=O)c4c(F)cccc4F)s3)CC2)cn1 [Example H15, 1-(4-Amino-2-{1-[6-(3-dimethylamino-propoxy)-pyridine-3-sulfonyl]-piperidin-4-ylamino}-thiazol-5-yl)-1-(2,6-difluoro-phenyl)-methanone Hydrochloride] | 0.64 | 71 | 500 | 0.34 |  |
| Cc1c[nH]c(-c2ccc(S(=O)(=O)N3CCC(Nc4nc(N)c(C(=O)c5c(F)cccc5F)s4)CC3)cn2)n1 [Example I2, 1-(4-Amino-2-{1-[6-(4-methyl-1H-imidazol-2-yl)-pyridine-3-sulfonyl]-piperidin-4-ylamino}-thiazol-5-yl)-1-(2,6-difluoro-phenyl)-methanone Hydrochloride] | 0.41 | 240 | 1400 | 0.72 |  |
| Nc1nc(NC2CCN(C(=O)NCCc3ccc4c(c3)OCO4)CC2)sc1C(=O)c1c(F)cccc1F [Example O87] |  |  |  |  | CDK2 % Inhibition At 0.03 μM (CDK2/Cyclin A; 0.03 μM compound): 25%; HCT-116 % Inhibition at 0.25 μM (HCT-116 cell line; HCT-116, Table 2): 44%; CDK4 % Inhibition at 0.03 μM ([1]; 0.03 μM compound, Table 2): 16% |
| Nc1nc(NC2CCN(C(=O)Nc3ccc(C(F)(F)F)cc3)CC2)sc1C(=O)c1c(F)cccc1F [Example O23] |  |  |  |  | CDK2 % Inhibition At 0.03 μM (CDK2/Cyclin A; 0.03 μM compound): 36%; HCT-116 % Inhibition at 0.25 μM (HCT-116 cell line; HCT-116, Table 2): 24%; CDK4 % Inhibition at 0.03 μM ([1]; 0.03 μM compound, Table 2): 10% |
| COc1cc(C(=O)N2CCC(Nc3nc(N)c(C(=O)c4c(F)cccc4F)s3)CC2)ccc1C [Example R155] |  |  |  |  | CDK2 % Inhibition at 0.03 μM (CDK2/Cyclin A; at 0.03 μM): 45%; HCT-116 % Inhibition at 0.1 μM (HCT-116 cell line; HCT-116 cells, at 0.1 μM): 0%; HCT-116 5 Inhibition at 0.25 μM (HCT-116 cell line; HCT-116 cells, at 0.25 μM): 67; CDK4 % Inhibition at 0.03 μM ([1]; at 0.03 μM): 67% |
| COc1cc(C(=O)N2CCC(Nc3nc(N)c(C(=O)c4c(F)cccc4F)s3)CC2)cc(OC)c1C [Example D17, {4-Amino-2-[1-(3,5-dimethoxy-4-methyl-benzoyl)-piperidin-4-ylamino]-thiazol-5-yl-}(2,6-difluoro-phenyl)-methanone] | 69 | 57 | 160 | 18 |  |
